Converted amounts (≈) assume the structure as drawn. Like-named read-outs stand apart in the source and are kept apart here.
Legend:
Test in all cases: in vitro anti-bacterial activity, two-fold agar plate dilution method
Type in all cases: cell-based
[1] = tested on: Escherichia coli CSH(RE45); conditions: 37° C., 20 hours
Procedure: (§1) The agent for preventing and treating bacterial infections was tested for in vitro anti-bacterial activity by the following two-fold agar plate dilution method. Each test strain was incubated for 20 hours in a bouillon for measuring sensitivity to obtain a test culture (containing about […]). Portions of sensitivity measuring agar medium containing varying concentrations of the antibacterial agent were each innoculated with a 0.005 ml portion of the culture, followed by incubation at 37° C. for 20 hours. The minimum growth inhibitory concentration (MIC) in μg/ml was then determined.
(§2) MIC=minimum inhibitory concentration

[2] = tested on: Escherichia coli NIHJ-JC2
Procedure: as §1, §2

Klebsiella pneumoniae = tested on: Klebsiella pneumoniae
Procedure: as §1, §2

Proteus mirabilis = tested on: Proteus mirabilis
Procedure: as §1, §2

Proteus vulgaris = tested on: Proteus vulgaris
Procedure: as §1, §2

Pseudomonas aeruginosa = tested on: Pseudomonas aeruginosa
Procedure: as §1, §2

Pseudomonas cepacia = conditions: 37° C., 20 hours
Procedure: as §1, §2

Serratia marcescens = tested on: Serratia marcescens
Procedure: as §1, §2

[3] = tested on: Staphylococcus aureus 209P
Procedure: as §1, §2

[4] = Escherichia coli NIHJ-JC2, agar dilution, 37° C., 20 hours
[5] = agar dilution, 37° C., 20 hours
[6] = Staphylococcus aureus 209P, agar dilution, 37° C., 20 hours
[7] = NIHJJC2, Escherichia coli NIHJ-JC2, agar dilution, 37° C., 20 hours, read-out: MIC
[8] = agar dilution, 37° C., 20 hours, read-out: MIC
[9] = Burkholderia cepacia, read-out: MIC
[10] = Staphylococcus aureus 209P, agar dilution, 37° C., 20 hours, read-out: MIC

Compound | MIC ([1]; read-out: MIC) | MIC [2, 7] | MIC (Proteus mirabilis; [8]) | MIC (Proteus vulgaris; [8]) | MIC (Pseudomonas aeruginosa; [8]) | MIC (Pseudomonas cepacia; [9]) | MIC (Serratia marcescens; [8]) | MIC [3, 10] | MIC (Klebsiella pneumoniae; 20 h) | MIC (Proteus mirabilis; 20 h) | MIC (Proteus vulgaris; 20 h) | MIC (Serratia marcescens; 20 h) | further results
7-{2-(2-aminothiazole-4-yl)-2-[potassium(2,2-dimethylacetate)oxyimino]acetamide}-3-(3-acetophenyl-1-imidazoliomethyl)-3-cephem-4-carboxylate |  |  |  |  |  |  |  |  |  |  |  |  | MIC [1]: 0.2 µg/mL; MIC [2, 4]: 0.39 µg/mL; MIC (Klebsiella pneumoniae; [5]): 1.56 µg/mL; MIC (Proteus mirabilis; [5]): 0.2 µg/mL; MIC (Proteus vulgaris; [5]): 0.2 µg/mL; MIC (Pseudomonas aeruginosa; [5]): 12.5 µg/mL; MIC (Pseudomonas cepacia): 25 µg/mL; MIC (Serratia marcescens; [5]): 1.56 µg/mL; MIC [3, 6]: 6.25 µg/mL
C=CCON=C(C(=O)NC1C(=O)N2C(C(=O)[O-])=C(Cn3cc[n+](CC(=O)c4ccccc4)c3)CSC12)c1csc(N)n1 (stereo not drawn) [B, 7-[2-(2-aminothiazole-4-yl)-2-(2-propenyloxyimino)acetamide]-3-(3-acetophenyl-1-imidazoliomethyl)-3-cephem-4-carboxylate] |  |  |  |  |  |  |  |  |  |  |  |  | MIC [1]: 0.10 µg/mL (≈ 0.165 µM); MIC [2, 4]: 0.39 µg/mL (≈ 0.642 µM); MIC (Klebsiella pneumoniae; [5]): 0.39 µg/mL (≈ 0.642 µM); MIC (Proteus mirabilis; [5]): 0.78 µg/mL (≈ 1.28 µM); MIC (Proteus vulgaris; [5]): 0.78 µg/mL (≈ 1.28 µM); MIC (Pseudomonas aeruginosa; [5]): 6.25 µg/mL (≈ 10.3 µM); MIC (Pseudomonas cepacia): 1.56 µg/mL (≈ 2.57 µM); MIC (Serratia marcescens; [5]): 1.56 µg/mL (≈ 2.57 µM); MIC [3, 6]: 0.20 µg/mL (≈ 0.329 µM)
C=CCO/N=C(\C(=O)NC1C(=O)N2C(C(=O)[O-])=C(C[n+]3ccn(-c4ccc(O)cc4)c3)CSC12)c1csc(N)n1 (stereo not drawn) [C, 7-[2-(2-aminothiazole-4-yl)-2-(2-propenyloxyimino)acetamide]-3-[3-(4-hydroxyphenyl)-1-imidazoliomethyl]-3-cephem-4-carboxylate] | 0.2 µg/mL (≈ 0.344 µM) | 0.39 µg/mL (≈ 0.671 µM) | 0.78 µg/mL (≈ 1.34 µM) | 0.78 µg/mL (≈ 1.34 µM) | 12.5 µg/mL (≈ 21.5 µM) | 6.25 µg/mL (≈ 10.7 µM) | 3.12 µg/mL (≈ 5.36 µM) | 0.39 µg/mL (≈ 0.671 µM) |  |  |  |  | MIC (Klebsiella pneumoniae; [8]): 0.78 µg/mL (≈ 1.34 µM)
C=CCO/N=C(\C(=O)NC1C(=O)N2C(C(=O)[O-])=C(C[n+]3ccn(CC=C)c3)CSC12)c1csc(N)n1 (stereo not drawn) [Compound A, 7-[2-(2-aminothiazole-4-yl)-2-(2-propenyloxyimino)acetamide]-3-[3-(2-propenyl)-1-imidazoliomethyl]-3-cephem-4-carboxylate] | 0.39 µg/mL (≈ 0.736 µM) | 0.78 µg/mL (≈ 1.47 µM) |  |  | 6.25 µg/mL (≈ 11.8 µM) | 6.25 µg/mL (≈ 11.8 µM) |  | 0.78 µg/mL (≈ 1.47 µM) | 1.56 µg/mL (≈ 2.95 µM) | 3.13 µg/mL (≈ 5.91 µM) | 1.56 µg/mL (≈ 2.95 µM) | 0.78 µg/mL (≈ 1.47 µM) | 
C#CCn1cc[n+](CC2=C(C(=O)[O-])N3C(=O)C(NC(=O)/C(=N\OC)c4csc(N)n4)C3SC2)c1 (stereo not drawn) [Compound G, 7-[2-(2-aminothiazole-4-yl)-2-methoxyiminoacetamide]-3-[3-(2-propynyl)-1-imidazoliomethyl]-3-cephem-4-carboxylate] | 0.2 µg/mL (≈ 0.399 µM) | 0.05 µg/mL (≈ 0.0997 µM) |  |  | 6.25 µg/mL (≈ 12.5 µM) | 25 µg/mL (≈ 49.8 µM) |  | 0.78 µg/mL (≈ 1.56 µM) | 0.1 µg/mL (≈ 0.199 µM) | 0.2 µg/mL (≈ 0.399 µM) | 0.2 µg/mL (≈ 0.399 µM) | 1.56 µg/mL (≈ 3.11 µM) | 
C=Cn1cc[n+](CC2=C(C(=O)[O-])N3C(=O)C(NC(=O)/C(=N\OC(C)(C)C(=O)O)c4csc(N)n4)C3SC2)c1 (stereo not drawn) [Compound M, 7-{2-(2-aminothiazole-4-yl)-2-[potassium(2,2-dimethylacetate)oxyimino]acetamide}-3-(3-vinyl-1-imidazoliomethyl)-3-cephem-4-carboxylate] | 0.1 µg/mL | 0.2 µg/mL |  |  |  | 12.5 µg/mL |  | 6.25 µg/mL | 0.39 µg/mL | 0.1 µg/mL | 0.1 µg/mL | 0.78 µg/mL | MIC (Pseudomonas aeruginosa; 20 h): 3.13 µg/mL
C=CCCn1c[n+](CC2=C(C(=O)[O-])N3C(=O)C(NC(=O)/C(=N\OC(C)(C)C(=O)O)c4csc(N)n4)C3SC2)c2ccccc21 (stereo not drawn) [Compound S, 7-{2-(2-aminothiazole-4-yl)-2-[potassium(2,2-dimethylacetate)oxyimino]acetamide}-3-[benz-3-N-(3-butenyl)-1-imidazoliomethyl]-3-cephem-4-carboxylate] | 0.39 µg/mL | 0.78 µg/mL |  |  | 6.25 µg/mL | 25 µg/mL |  | 0.78 µg/mL | 3.13 µg/mL | 3.13 µg/mL | 0.78 µg/mL | 3.13 µg/mL | 
C#CCn1cc[n+](CC2=C(C(=O)[O-])N3C(=O)C(NC(=O)/C(=N\OCC=C)c4csc(N)n4)C3SC2)c1 (stereo not drawn) [D, 7-[2-(2-aminothiazole-4-yl)-2-(2-propenyloxyimino)acetamide]-3-[3-(2-propynyl)-1-imidazoliomethyl]-3-cephem-4-carboxylate] | 0.78 µg/mL (≈ 1.48 µM) | 0.78 µg/mL (≈ 1.48 µM) | 1.56 µg/mL (≈ 2.96 µM) | 1.56 µg/mL (≈ 2.96 µM) | 12.5 µg/mL (≈ 23.7 µM) | 12.5 µg/mL (≈ 23.7 µM) | 3.13 µg/mL (≈ 5.93 µM) | 0.78 µg/mL (≈ 1.48 µM) | 0.78 µg/mL (≈ 1.48 µM) |  |  |  | 
C=CCO/N=C(\C(=O)NC1C(=O)N2C(C(=O)[O-])=C(C[n+]3ccn(C)c3)CSC12)c1csc(N)n1 (stereo not drawn) [E, 7-[2-(2-aminothiazole-4-yl)-2-(2-propenyloxyimino)acetamide]-3-(3-methyl-1-imidazoliomethyl)-3-cephem-4-carboxylate] | 0.05 µg/mL (≈ 0.0993 µM) | 0.2 µg/mL (≈ 0.397 µM) | 0.78 µg/mL (≈ 1.55 µM) | 0.39 µg/mL (≈ 0.774 µM) | 12.5 µg/mL (≈ 24.8 µM) | > 50 µg/mL | 1.56 µg/mL (≈ 3.1 µM) | 0.78 µg/mL (≈ 1.55 µM) |  |  |  |  | MIC (Klebsiella pneumoniae; [8]): 0.02 µg/mL (≈ 0.0397 µM)
C=CCn1cc[n+](CC2=C(C(=O)[O-])N3C(=O)C(NC(=O)/C(=N\OC)c4csc(N)n4)C3SC2)c1 (stereo not drawn) [F, 7-[2-(2-aminothiazole-4-yl)-2-methoxyiminoacetamide]-3-[3-(2-propenyl)-1-imidazoliomethyl]-3-cephem-4-carboxylate] | 0.2 µg/mL (≈ 0.397 µM) | 0.1 µg/mL (≈ 0.199 µM) |  |  | 25 µg/mL (≈ 49.6 µM) | 50 µg/mL (≈ 99.3 µM) | 0.78 µg/mL (≈ 1.55 µM) | 6.25 µg/mL (≈ 12.4 µM) | 0.1 µg/mL (≈ 0.199 µM) | 0.39 µg/mL (≈ 0.774 µM) | 0.39 µg/mL (≈ 0.774 µM) |  | 
C=CCn1cc[n+](CC2=C(C(=O)[O-])N3C(=O)C(NC(=O)/C(=N\OC(C)(C)C(=O)O)c4csc(N)n4)C3SC2)c1 (stereo not drawn) [H, 7-{2-(2-aminothiazole-4-yl)-2-[potassium(2,2-dimethylacetate)oxyimino]acetamide}-3-[3-(2-propenyl)-1-imidazoliomethyl]-3-cephem-4-carboxylate] | 0.1 µg/mL | 0.2 µg/mL | 0.2 µg/mL | 0.1 µg/mL | 3.12 µg/mL | 6.25 µg/mL | 0.78 µg/mL | 5 µg/mL |  |  |  |  | MIC (Klebsiella pneumoniae; [8]): 0.78 µg/mL
CCCCCCn1cc[n+](CC2=C(C(=O)[O-])N3C(=O)C(NC(=O)/C(=N\OC(C)(C)C(=O)O)c4csc(N)n4)C3SC2)c1 (stereo not drawn) [J, 7-{2-(2-aminothiazole-4-yl)-2-[potassium(2,2-dimethylacetate)oxyimino]acetamide}-3-(3-n-hexyl-1-imidazoliomethyl)-3-cephem-4-carboxylate] | 0.2 µg/mL | 0.78 µg/mL |  | 0.2 µg/mL | 3.12 µg/mL | 6.25 µg/mL | 0.78 µg/mL | 6.25 µg/mL | 1.56 µg/mL | 0.39 µg/mL |  |  | 
C#CCn1cc[n+](CC2=C(C(=O)[O-])N3C(=O)C(NC(=O)/C(=N\OC(C)(C)C(=O)O)c4csc(N)n4)C3SC2)c1 (stereo not drawn) [K, 7-{2-(2-aminothiazole-4-yl)-2-[potassium(2,2-dimethylacetate)oxyimino]acetamide}-3-[3-(2-propynyl)-1-imidazoliomethyl]-3-cephem-4-carboxylate] | 0.39 µg/mL |  | 0.39 µg/mL | 0.39 µg/mL |  | 0.39 µg/mL |  | 12.5 µg/mL | 0.78 µg/mL |  |  | 0.78 µg/mL | MIC ([2]; Escherichia coli, NIHJJC2, 20 h): 0.2 µg/mL; MIC (Pseudomonas aeruginosa; 20 h): 3.13 µg/mL
Cn1c[n+](CC2=C(C(=O)[O-])N3C(=O)C(NC(=O)/C(=N\OC(C)(C)C(=O)O)c4csc(N)n4)C3SC2)c2ccccc21 (stereo not drawn) [L, 7-{2-(2-aminothiazole-4-yl)-2-[potassium(2,2-dimethylacetate)oxyimino]acetamide}-3-(benz-3-N-methyl-1-imidazoliomethyl)-3-cephem-4-carboxylate] | 0.2 µg/mL | 0.2 µg/mL | 0.2 µg/mL | 0.2 µg/mL |  | 6.25 µg/mL |  |  | 0.78 µg/mL |  |  | 0.78 µg/mL | MIC (Pseudomonas aeruginosa; 20 h): 3.13 µg/mL; MIC ([3]; Staphylococcus aureus, 209P, 20 h): 1.56 µg/mL
CC(C)(O/N=C(\C(=O)NC1C(=O)N2C(C(=O)[O-])=C(C[n+]3ccn(C4CCCCC4)c3)CSC12)c1csc(N)n1)C(=O)O (stereo not drawn) [N, 7-{2-(2-aminothiazole-4-yl)-2-[potassium(2,2-dimethylacetate)oxyimino]acetamide}-3-(3-cyclohexyl-1-imidazoliomethyl)-3-cephem-4-carboxylate] | 0.1 µg/mL | 0.2 µg/mL | 0.2 µg/mL | 0.2 µg/mL | 6.25 µg/mL | 25 µg/mL | 1.56 µg/mL | 6.25 µg/mL | 0.78 µg/mL |  |  |  | 
CC(C)(O/N=C(\C(=O)NC1C(=O)N2C(C(=O)[O-])=C(C[n+]3ccn(-c4ccc(O)cc4)c3)CSC12)c1csc(N)n1)C(=O)O (stereo not drawn) [O, 7-{2-(2-aminothiazole-4-yl)-2-[potassium(2,2-dimethylacetate)oxyimino]acetamide}-3-[3-(4-hydroxyphenyl)-1-imidazoliomethyl]-3-cephem-4-carboxylate] | 0.1 µg/mL | 0.2 µg/mL |  |  | 6.25 µg/mL | 25 µg/mL |  | 6.25 µg/mL | 0.78 µg/mL | 0.2 µg/mL | 0.1 µg/mL | 0.78 µg/mL | 
